From paper PMC9246766 (Pharmaceutical research, 2022)
Like-named read-outs stand apart in the source and are kept apart here.

How the values were obtained:
OCT3 [1] = target: T1, OCT3 (Homo sapiens, UniProt O75751); assay: IC50 determination against OCT3-mediated ASP+ uptake in HEK-293 cells overexpressing OCT3; type: cell-based
T1 sequence (O75751 1-556): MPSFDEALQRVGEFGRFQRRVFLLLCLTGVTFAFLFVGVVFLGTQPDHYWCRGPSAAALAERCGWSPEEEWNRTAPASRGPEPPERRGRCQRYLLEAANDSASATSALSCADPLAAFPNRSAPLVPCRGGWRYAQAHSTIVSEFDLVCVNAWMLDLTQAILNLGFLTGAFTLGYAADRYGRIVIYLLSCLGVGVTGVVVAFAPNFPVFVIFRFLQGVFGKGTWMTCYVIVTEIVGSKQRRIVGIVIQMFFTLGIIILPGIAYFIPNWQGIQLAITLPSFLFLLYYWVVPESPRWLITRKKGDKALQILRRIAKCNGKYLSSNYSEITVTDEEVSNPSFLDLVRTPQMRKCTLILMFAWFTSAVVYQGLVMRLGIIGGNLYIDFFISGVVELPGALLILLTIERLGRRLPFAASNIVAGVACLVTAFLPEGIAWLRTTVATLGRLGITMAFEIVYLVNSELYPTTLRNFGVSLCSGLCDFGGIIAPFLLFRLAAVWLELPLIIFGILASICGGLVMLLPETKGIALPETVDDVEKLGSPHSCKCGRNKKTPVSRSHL

OCT3 [2] = target: T1, OCT3; assay: IC50 determination against OCT3-mediated [14C]metformin uptake in HEK-293 cells overexpressing OCT3; type: cell-based
OCT3 [3] = target: T1, OCT3; assay: High throughput screen: inhibition of OCT3-mediated ASP+ uptake in HEK-293 cells stably expressing OCT3; type: cell-based; conditions: for inhibition at 20 µM: HEK293
OCT3 [4] = target: T1, OCT3; assay: Predicted DDI potential: ratio of plasma CMAX (total or unbound) to predicted OCT3 IC50; conditions: unbound plasma CMAX over predicted OCT3 IC50
[5] = total maximum plasma concentration; ref http://www.micromedexsolutions.com/; cited from earlier work
[6] = plasma protein binding used for unbound CMAX; source not given; cited from earlier work
[7] = cited from earlier work; for FDA product insert: warnings, precautions and major adverse reactions: cardiovascular / CNS related, ref FDA product insert; for Neurological side effects: stated in discussion, ref Table SII, 60; for Neurological Effects (from Literature): ref Pubmed ID of Table SII

| IC50 (OCT3 [1]) | inhibition at 20 µM (OCT3 [3]) | SMILES | IC50 (OCT3 [3]) | Cmax [5] | Protein binding [6] | FDA product insert: warnings, precautions and major adverse reactions [7] | further results |
| --- | --- | --- | --- | --- | --- | --- | --- |
| 14.5 µM |  | N=C(N)NC(=O)c1nc(Cl)c(N)nc1N [amiloride] |  |  |  |  | IC50 (OCT3 [2]): 3 µM |
|  | 66.9% | CC1(C)S[C@@H]2[C@H](NC(=O)[C@H](NC(=O)N3CCNC3=O)c3ccccc3)C(=O)N2[C@H]1C(=O)O [azlocillin] | 9.9 µM | 17300 nM | 30% |  | Unbound CMAX/IC50 (OCT3 [4]): 1.23 |
| 19.7 µM |  | COc1ccccc1OCCNCC(O)COc1cccc2[nH]c3ccccc3c12 (stereo not shown) [carvedilol] |  |  |  |  |  |
| 3.7 µM |  | [H]/N=C(\N/C(=N/[H])NCCCCCCNC(=N)NC(=N)Nc1ccc(Cl)cc1)Nc1ccc(Cl)cc1 [chlorhexidine] |  |  |  |  | IC50 (OCT3 [2]): 0.4 µM |
| 177 µM |  | CNCCCN1c2ccccc2CCc2ccccc21 [desipramine] |  |  |  |  | inhibition at 20 µM (OCT3 [1]; HEK293, read-out: Inhibition of OCT3 activity at 20 μM): < 50% |
| 5.6 µM |  | COc1cc2nc(N3CCN(C(=O)C4COc5ccccc5O4)CC3)nc(N)c2cc1OC (stereo not shown) [doxazosin] |  |  |  |  |  |
|  | 60.6% | O=C(O)c1ccccc1Nc1cccc(C(F)(F)F)c1 [flufenamic acid] | 13 µM | 24200 nM | 90% |  | Unbound CMAX/IC50 (OCT3 [4]): 0.19 |
| 3.2 µM |  | N=C(N)N/N=C/c1c(Cl)cccc1Cl [guanabenz] |  |  |  |  | IC50 (OCT3 [2]): 1.1 µM |
|  |  | Cc1ccc(NC(=O)c2ccc(CN3CCN(C)CC3)cc2)cc1Nc1nccc(-c2cccnc2)n1 [imatinib] |  | 1200 nM |  |  |  |
|  | 87.2% | Cc1c(OCC(F)(F)F)ccnc1C[S+]([O-])c1nc2ccccc2[nH]1 (stereo not shown) [lansoprazole] | < 5 µM | 2900 nM | 97% | No warnings and precautions regarding to cardiovascular, CNS | Neurological Effects (from Literature) [7]: Increase the risk of dementia |
|  | 50.5% | Cc1oncc1C(=O)Nc1ccc(C(F)(F)F)cc1 [leflunomide] | 19.6 µM | 233000 nM | 99.3% | No warnings and precautions regarding to cardiovascular, CNS |  |
|  | 65% | C[C@@H](O)[C@H]1C(=O)N2C(C(=O)O)=C(S[C@@H]3CN[C@H](C(=O)N(C)C)C3)[C@H](C)[C@H]12 [meropenem] | 10.8 µM | 256000 nM |  | Warnings and precautions: Seizures and other adverse CNS experiences have been reported during treatment. | Neurological side effects [7]: neurological side effects; Unbound CMAX/IC50 (OCT3 [4]): 23.3 |
| 2.4 µM | 74% | CCCNCC(O)COc1ccccc1C(=O)CCc1ccccc1 (stereo not shown) [propafenone] | 7 µM |  |  |  |  |
|  | 87.3% | COCCCOc1ccnc(C[S+]([O-])c2nc3ccccc3[nH]2)c1C (stereo not shown) [rabeprazole] | < 5 µM | 1300 nM | 96% | No warnings and precautions regarding to cardiovascular, CNS |  |
|  | 82.8% | CC(=O)S[C@@H]1CC2=CC(=O)CC[C@]2(C)[C@H]2CC[C@@]3(C)[C@@H](CC[C@@]34CCC(=O)O4)[C@H]12 [spironolactone] | < 5 µM | 1100 nM | 93% | No warnings and precautions regarding to cardiovascular, CNS | Neurological Effects (from Literature) [7]: Neurotoxicity, lipophilic and cross the blood brain barrier |
| 12 µM | 81.6% | CCCc1nc2c(C)cc(-c3nc4ccccc4n3C)cc2n1Cc1ccc(-c2ccccc2C(=O)O)cc1 [telmisartan] |  | 2800 nM | 99.5% | No warnings and precautions regarding to cardiovascular, CNS | Neurological Effects (from Literature) [7]: Neuroprotective effect, across bbb; IC50 (OCT3 [2]): 3.9 µM |
|  |  | COc1cc(Cc2cnc(N)nc2N)cc(OC)c1OC [trimethoprim] |  | 5900 nM |  | warnings and precautions related to cardiovascular side-effects | FDA product insert: warnings, precautions and major adverse reactions ([7]; listed as Trimethoprim): Post marketing experience: QT prolongation resulting in ventricular tachycardia and torsade de pointes; Neurological Effects (from Literature) [7]: Trimethoprim/sulfamethaxazole (TMP-SMX) has been reported to be associated with encephalopathy and psychosis; Neurological side effects [7]: neurological side effects |
|  | 53.6% | Cc1onc(-c2ccccc2)c1-c1ccc(S(N)(=O)=O)cc1 [valdecoxib] | 17.3 µM | 2200 nM | 98% |  | Neurological Effects (from Literature) [7]: Neuroprotective effect, across bbb |

| SMILES | IC50 (OCT3 [1]) | inhibition at 20 µM (OCT3 [3]) | IC50 (OCT3 [3]) | Cmax [5] | Protein binding [6] | FDA product insert: warnings, precautions and major adverse reactions [7] | further results |
| --- | --- | --- | --- | --- | --- | --- | --- |
| C[C@H]1[C@H](NC(=O)/C(=N\OC(C)(C)C(=O)O)c2csc(N)n2)C(=O)N1S(=O)(=O)O [aztreonam] |  | 87.1% | < 5 µM | 585000 nM | 56% | warnings and precautions related to cardiovascular side-effects | FDA product insert: warnings, precautions and major adverse reactions ([7]; listed as Aztreonam): Adverse reaction: Cardiovascular—hypotension, transient ECG changes (ventricular bigeminy and PVC), flushing. Nervous System—seizure, confusion, vertigo, paresthesia, insomnia, dizziness.; Neurological side effects [7]: neurological side effects |
| O=C1CCc2cc(OCCCCc3nnnn3C3CCCCC3)ccc2N1 [cilostazol] |  | 93.8% | < 5 µM | 2100 nM | 95% |  | Neurological Effects (from Literature) [7]: Cilostazol attenuated blood–brain barrier leakage, Cilostazol (CSZ) was recently found to suppress the progression of cognitive decline in patients with stable AD receiving acetylcholinesterase inhibitors |
| CC[C@H]1CN2CCc3cc(OC)c(OC)cc3[C@@H]2C[C@@H]1C[C@H]1NCCc2cc(OC)c(OC)cc21 [emetine] |  | 82.7% | < 5 µM | 600 nM | 90% |  |  |
| C=C1C[C@@H]2[C@H](CC[C@]3(C)C(=O)CC[C@@H]23)[C@@]2(C)C=CC(=O)C=C12 [exemestane] |  | 94.5% | < 5 µM | 1400 nM | 90% | No warnings and precautions regarding to cardiovascular, CNS |  |
| CCC1=C(C)CN(C(=O)NCCc2ccc(S(=O)(=O)NC(=O)N[C@H]3CC[C@H](C)CC3)cc2)C1=O [glimepiride] |  | 87.7% | < 5 µM | 1200 nM | 99% | No warnings and precautions regarding to cardiovascular, CNS. However, oral hypoglycemic reagents are known to increase cardiovascular mortality which may be due to hypoglycemia incidence. |  |
| CC(=O)N1CCN(c2ccc(OCC3COC(Cn4ccnc4)(c4ccc(Cl)cc4Cl)O3)cc2)CC1 (stereo not shown) [ketoconazole] | 0.42 µM | 93.4% | < 5 µM | 1900 nM | 91% |  |  |
| COc1ccc2[nH]c([S+]([O-])Cc3ncc(C)c(OC)c3C)nc2c1 (stereo not shown) [omeprazole] |  | 64.1% | 11.2 µM | 4200 nM | 95% | No warnings and precautions regarding to cardiovascular, CNS | Neurological Effects (from Literature) [7]: Increase the risk of dementia |
| COc1ccc(Cc2nccc3cc(OC)c(OC)cc23)cc1OC [papaverine] | 4.1 µM |  |  |  |  |  | IC50 (OCT3 [2]): 1.2 µM |
| C[C@]12C=CC(=O)C=C1CC[C@@H]1[C@@H]2[C@@H](O)C[C@@]2(C)[C@H]1CC[C@]2(O)C(=O)CO [prednisolone] |  | 67.5% | 9.6 µM | 2900 nM | 70% |  | Neurological Effects (from Literature) [7]: Behavirol effects |
| C=C[C@H]1C[N@@]2CC[C@H]1C[C@H]2[C@H](O)c1ccnc2ccc(OC)cc12 [quinine] | 6.6 µM | 90.6% | < 5 µM |  |  | warnings and precautions related to cardiovascular side-effects | FDA product insert: warnings, precautions and major adverse reactions ([7]; listed as Quinine): Warnings and precautions: QT prolongation and ventricular arrhythmias. Avoid concomitant use with drugs known to prolong QT interval. |
